Assay: Anticancer human tumor 997537-175-T-J1-PDC patient-derived colon adenocarcinoma cell line growth inhibition [POLQ]
Conditions: 997537-175-T-J1-PDC complex spheroid viability, combination with POLQ inhibitors; for IC50: curve of first compound; for viability, T/C: stronger effect = lower value
Summary of the method: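 Growth inhibition in 3D: complex spheroids (tumor PDC, HUVEC, MSC) treated with POLQ inhibitor combinations; where Cmax unknown, highest tested concentration 10 microM, except SN-38 at 1 microM.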

[1] = second compound 0.0316 µM, first compound 0.0316 µM
[2] = second compound 0.0316 µM, first compound 0.1 µM
[3] = second compound 0.0316 µM, first compound 0.316 µM
[4] = second compound 0.0316 µM, first compound 1 µM
[5] = second compound 0.0316 µM, first compound 3.16 µM
[6] = second compound 0.0316 µM, first compound 10 µM
[7] = second compound 0.1 µM, first compound 0.0316 µM
[8] = second compound 0.1 µM, first compound 0.1 µM
[9] = second compound 0.1 µM, first compound 0.316 µM
[10] = second compound 0.1 µM, first compound 1 µM
[11] = second compound 0.1 µM, first compound 3.16 µM
[12] = second compound 0.1 µM, first compound 10 µM
[13] = second compound 0.316 µM, first compound 0.0316 µM
[14] = second compound 0.316 µM, first compound 0.1 µM
[15] = second compound 0.316 µM, first compound 0.316 µM
[16] = second compound 0.316 µM, first compound 1 µM
[17] = second compound 0.316 µM, first compound 3.16 µM
[18] = second compound 0.316 µM, first compound 10 µM
[19] = second compound 1 µM, first compound 0.0316 µM
[20] = second compound 1 µM, first compound 0.1 µM
[21] = second compound 1 µM, first compound 0.316 µM
[22] = second compound 1 µM, first compound 1 µM
[23] = second compound 1 µM, first compound 3.16 µM
[24] = second compound 1 µM, first compound 10 µM
[25] = second compound 3.16 µM, first compound 0.0316 µM
[26] = second compound 3.16 µM, first compound 0.1 µM
[27] = second compound 3.16 µM, first compound 0.316 µM
[28] = second compound 3.16 µM, first compound 1 µM
[29] = second compound 3.16 µM, first compound 3.16 µM
[30] = second compound 3.16 µM, first compound 10 µM
[31] = second compound 10 µM, first compound 0.0316 µM
[32] = second compound 10 µM, first compound 0.1 µM
[33] = second compound 10 µM, first compound 0.316 µM
[34] = second compound 10 µM, first compound 1 µM
[35] = second compound 10 µM, first compound 3.16 µM
[36] = second compound 10 µM, first compound 10 µM
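Further: luminescence signal used as a surrogate for viable cells; spheroids exposed to drugs for seven days before readout.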

Work on `Nc1ccn(C2OC(CO)C(O)C2(F)F)c(=O)n1` (stereo unspecified) + COC1C(OC(N)=O)C(O)C(Oc2ccc3c(O)c(NC(=O)c4ccc(O)c(CC=C(C)C)c4)c(=O)oc3c2C)OC1(C)C yielded an IC50 (second compound 0.0316 µM) greater than 10 µM, an IC50 (second compound 0.1 µM) greater than 10 µM and an IC50 (second compound 0.316 µM) greater than 10 µM. For the same molecule, the IC50 (second compound 1 µM) was greater than 10 µM, the IC50 (second compound 3.16 µM) was greater than 10 µM and the IC50 (second compound 10 µM) was greater than 10 µM. For the same molecule, the viability, T/C [1] was 95.8%, the viability, T/C [2] was 108% and the viability, T/C [3] was 79.4%. For the same molecule, the viability, T/C [4] was 85.2%, the viability, T/C [5] was 65.8% and the viability, T/C [6] was 88.2%. The viability, T/C [7] was 108%, the viability, T/C [8] was 106% and the viability, T/C [9] was 72.2%. For the same molecule, the viability, T/C [10] was 95%, the viability, T/C [11] was 80.6% and the viability, T/C [12] was 74.9%. The viability, T/C [13] was 103%, the viability, T/C [14] was 106% and the viability, T/C [15] was 88.7%. It also gave a viability, T/C [16] of 78.4%, a viability, T/C [17] of 73.9% and a viability, T/C [18] of 66.8%. It also gave a viability, T/C [19] of 106%, a viability, T/C [20] of 89.9% and a viability, T/C [21] of 100%. For the same molecule, the viability, T/C [22] was 76.5%, the viability, T/C [23] was 63.6% and the viability, T/C [24] was 70.6%. For the same molecule, the viability, T/C [25] was 97.9%, the viability, T/C [26] was 97% and the viability, T/C [27] was 92.5%. It also gave a viability, T/C [28] of 94.6%, a viability, T/C [29] of 71.7% and a viability, T/C [30] of 62.7%. It also gave a viability, T/C [31] of 84.6%, a viability, T/C [32] of 90.8% and a viability, T/C [33] of 86.5%. For the same molecule, the viability, T/C [34] was 63.7%, the viability, T/C [35] was 71.6% and the viability, T/C [36] was 72.3%.

In the case of `COc1cc(C2c3cc4c(cc3C(OC3OC5COC(C)OC5C(O)C3O)C3COC(=O)C23)OCO4)cc(OC)c1O` (stereo unspecified) + COC1C(OC(N)=O)C(O)C(Oc2ccc3c(O)c(NC(=O)c4ccc(O)c(CC=C(C)C)c4)c(=O)oc3c2C)OC1(C)C, the IC50 (second compound 0.0316 µM) is reported as greater than 10 µM, the IC50 (second compound 0.1 µM) is reported as greater than 10 µM and the IC50 (second compound 0.316 µM) is reported as greater than 10 µM. It also gave an IC50 (second compound 1 µM) greater than 10 µM, an IC50 (second compound 3.16 µM) greater than 10 µM and an IC50 (second compound 10 µM) greater than 10 µM. For the same molecule, the viability, T/C [1] was 99.8%, the viability, T/C [2] was 95% and the viability, T/C [3] was 93.1%. For the same molecule, the viability, T/C [4] was 89.9%, the viability, T/C [5] was 74.7% and the viability, T/C [6] was 67.3%. It also gave a viability, T/C [7] of 103%, a viability, T/C [8] of 114% and a viability, T/C [9] of 99.3%. For the same molecule, the viability, T/C [10] was 93.7%, the viability, T/C [11] was 60.2% and the viability, T/C [12] was 88.5%. The viability, T/C [13] was 97.3%, the viability, T/C [14] was 107% and the viability, T/C [15] was 99.2%. The viability, T/C [16] was 108%, the viability, T/C [17] was 92.3% and the viability, T/C [18] was 53.3%. For the same molecule, the viability, T/C [19] was 93.5%, the viability, T/C [20] was 105% and the viability, T/C [21] was 110%. The viability, T/C [22] was 83.9%, the viability, T/C [23] was 88.8% and the viability, T/C [24] was 55.5%. For the same molecule, the viability, T/C [25] was 109%, the viability, T/C [26] was 107% and the viability, T/C [27] was 87.7%. The viability, T/C [28] was 104%, the viability, T/C [29] was 63.5% and the viability, T/C [30] was 67.8%. The viability, T/C [31] was 106%, the viability, T/C [32] was 107% and the viability, T/C [33] was 108%. The viability, T/C [34] was 100%, the viability, T/C [35] was 84.9% and the viability, T/C [36] was 66.1%.

In the case of `CC1COCCN1c1cc(-c2ccnn2C)c2ccnc(-c3ccn[nH]3)c2n1` (stereo unspecified) + COC1C(OC(N)=O)C(O)C(Oc2ccc3c(O)c(NC(=O)c4ccc(O)c(CC=C(C)C)c4)c(=O)oc3c2C)OC1(C)C, the IC50 (second compound 0.0316 µM) is reported as 0.221 µM, the IC50 (second compound 0.1 µM) is reported as 0.648 µM and the IC50 (second compound 0.316 µM) is reported as 0.314 µM. For the same molecule, the IC50 (second compound 1 µM) was 0.409 µM, the IC50 (second compound 3.16 µM) was 0.666 µM and the IC50 (second compound 10 µM) was greater than 10 µM. For the same molecule, the viability, T/C [1] was 77.2%, the viability, T/C [2] was 70.2% and the viability, T/C [3] was 40.4%. The viability, T/C [4] was 47%, the viability, T/C [5] was 24.8% and the viability, T/C [6] was 51.3%. The viability, T/C [7] was 83.3%, the viability, T/C [8] was 81.5% and the viability, T/C [9] was 64.1%. The viability, T/C [10] was 42.5%, the viability, T/C [11] was 24.7% and the viability, T/C [12] was 52.9%. For the same molecule, the viability, T/C [13] was 88.1%, the viability, T/C [14] was 88.1% and the viability, T/C [15] was 49.7%. It also gave a viability, T/C [16] of 46.3%, a viability, T/C [17] of 33% and a viability, T/C [18] of 66.8%. The viability, T/C [19] was 96.5%, the viability, T/C [20] was 75% and the viability, T/C [21] was 54.3%. The viability, T/C [22] was 39%, the viability, T/C [23] was 33.1% and the viability, T/C [24] was 56.1%. The viability, T/C [25] was 99.5%, the viability, T/C [26] was 88.9% and the viability, T/C [27] was 66.1%. For the same molecule, the viability, T/C [28] was 31.5%, the viability, T/C [29] was 27.4% and the viability, T/C [30] was 64.9%. The viability, T/C [31] was 87%, the viability, T/C [32] was 64.7% and the viability, T/C [33] was 44%. For the same molecule, the viability, T/C [34] was 54%, the viability, T/C [35] was 32.2% and the viability, T/C [36] was 70.3%.

Reference: PubChem BioAssay AID1963825 (Molecular Pharmacology Branch, DTP, NCI, 2024)
